# Where a name gives a salt, the structure may show the parent alone.
# Assays:
# [1] = test system: γ-H2AX in HepG2 cells; test: γ-H2AX MS assay, dose-effect relationship in HepG2 cells
# Protocol: Human hepatoblastoma cells (HepG2) were cultivated in DMEM medium under standard conditions (37°C in a 5% CO2 atmosphere). The culturing medium was added with 10% FBS, 100 U/mL penicillin and 100 μg/mL streptomycin.
# In accordance to our previous study, cells were exposed to the chemotherapeutic agent by adding a proper volume of chemotherapeutic agent stock solution to the fresh medium without serum. Controls were treated with DMSO (0.1%) in medium. Independent biological experiments with three technical replicates were conducted.
# The cells were then treated with different chemotherapy agents in serum-free medium. For a dose-effect relationship experiment, cells were exposed to each agent at either of three concentrations with a 10-fold increase for 24 h. For the time-effect relationship experiment of nine tested chemotherapy agents, cells were exposed to selected chemotherapy agents at 0.5, 1, 2, 4, 8, 12, and 24 h, with the concentration of 100 μM. Independent biological experiments with three technical replicates were performed.
# (§1) The quantification of γ-H2AX was carried out according to the previous report ([Qu et al., 2021]). In short, the cell clumps were collected after a certain period of cell culture and histones were obtained by acid extraction. After nuclear isolation, histone extraction, trypsin digestion in the solution, and desalting, the peptide sample from the carboxy terminus of H2AX was analyzed. LC–MS/MS analysis was conducted using a QTRAP 5500 (AB Sciex, Framingham, United States) with an ACQUITY UPLC system (Waters Co., Manchester, United Kingdom). Chromatographic separation was carried out with an ACQUITY UPLC BEH C18 column (100 mm × 2.1 mm, 1.7 μm). The column temperature was maintained at 40°C. A 10 μL sample aliquot was injected for analysis. Mobile phases A and B were 0.1% FA in distilled H2O and acetonitrile, respectively. […] The eluent composition was maintained for 2 min, after which the system returned to 1% B and was re-equilibrated for 2 min. The eluates in the first 1 min were switched to waste to prevent contaminating the ion source. The electrospray ionization source was operated in positive mode using nitrogen as the nebulizing gas. All experiments were performed independently in at least triplicate.
# To this end, we firstly examined the cytotoxicity of 34 chemotherapy agents, all of which were already well classified in terms of diverse characteristics. These tested chemotherapy agents were serially diluted for exposure to check the effects on cell viability.
# [2] = test system: γ-H2AX in HepG2 cells; test: γ-H2AX time-effect relationship / DNA repair kinetics (k, t50) in HepG2 cells; format: cell-based, Human; design: k (speed of γ-H2AX descending): unit not given here; details: 100 μM, 0.5–8 h time-dependent kinetics
# Protocol: The cells were then treated with different chemotherapy agents in serum-free medium. […] Independent biological experiments with three technical replicates were performed.
# as §1, with “In” for “The quantification of γ-H2AX was carried out according to the previous report ([Qu et al., 2021]). In”
# Here, we estimated k and t50 after exposure to nine representative chemotherapy agents based on the 0.5–8 h γ-H2AX time-dependent kinetics (Figure 5) and then obtained these parameters to describe each agent DSB repair capacity using the functions optim and optimize in R language.
# [3] = combination of in vitro mouse lymphoma, chromosomal aberration, and micronucleus tests; cited from earlier work
compound,measurement,setting,value
Cc1ncc(CNC(=O)N(CCCl)N=O)c(N)n1 [Nimustine],γ-H2AX MEC/MS (minimum effective concentration),"[1]; HepG2 cells, 24 h exposure",↑(0.01) µM
same,γ-H2AX MEC/MS (minimum effective concentration),"[1]; HepG2 cells, 24 h exposure, listed as nimustine",0.01 µM
same,k (speed of γ-H2AX descending),[2],0.160
same,t50 (time required for γ-H2AX to drop to half of the maximum value),[2],2.465 h
O=c1[nH]c(=O)n(C2CCCO2)cc1F (stereo not drawn) [Tegafur],value of γ-H2AX,"[1]; human, 100 μM",7.2
same,maximum γ-H2AX value within the selected concentration range,"[1]; human, 24 h",7.2
same,In vitro assays (genotoxicity),[3],+
same,k (speed of γ-H2AX descending),[2],3.015
same,t50 (time required for γ-H2AX to drop to half of the maximum value),[2],1.442 h
CC(=O)O[C@H]1C(=O)[C@@]2(C)[C@H]([C@H](OC(=O)c3ccccc3)[C@]3(O)C[C@H](OC(=O)[C@H](O)[C@@H](NC(=O)c4ccccc4)c4ccccc4)C(C)=C1C3(C)C)[C@]1(OC(C)=O)CO[C@@H]1C[C@@H]2O [Paclitaxel],Variation of γ-H2AX,"[1]; human, 24 h",no variations of γ-H2AX
COc1cc([C@@H]2c3cc4c(cc3[C@@H](O[C@@H]3O[C@@H]5CO[C@@H](C)O[C@H]5[C@H](O)[C@H]3O)[C@H]3COC(=O)[C@H]23)OCO4)cc(OC)c1O [Etoposide],In vitro assays (genotoxicity),[3],+
CC(C)(C#N)c1cc(Cn2cncn2)cc(C(C)(C)C#N)c1 [Anastrozole],In vitro assays (genotoxicity),[3],−
CC[C@]1(O)C[C@H]2CN(CCc3c([nH]c4ccccc34)[C@@](C(=O)OC)(c3cc4c(cc3OC)N(C=O)[C@H]3[C@@](O)(C(=O)OC)[C@H](OC(C)=O)[C@]5(CC)C=CCN6CC[C@]43[C@@H]65)C2)C1 [Vincristine],Variation of γ-H2AX,"[1]; human, 24 h",no variations of γ-H2AX
same,maximum γ-H2AX value within the selected concentration range,"[1]; human, 24 h",3
O=C1[O][Pt]2([NH][C@@H]3CCCC[C@H]3[NH]2)[O]C1=O [Oxaliplatin],maximum γ-H2AX value within the selected concentration range,"[1]; HepG2 cells, 24 h",7.51
same,γ-H2AX MEC/MS (minimum effective concentration),"[1]; HepG2 cells, 24 h exposure",↑(100) µM
same,γ-H2AX MEC/MS (minimum effective concentration),"[1]; HepG2 cells, 24 h exposure, listed as oxaliplatin",100 µM
same,In vitro assays (genotoxicity),[3],+
NC(=O)NO [Hydroxyurea],MEC in γ-H2AX MS assay,[1],1 mM
same,In vitro assays (genotoxicity),[3],+
COc1cc([C@@H]2c3cc4c(cc3[C@@H](O[C@@H]3O[C@@H]5CO[C@@H](c6cccs6)O[C@H]5[C@H](O)[C@H]3O)[C@H]3COC(=O)[C@H]23)OCO4)cc(OC)c1O [Teniposide],maximum γ-H2AX value within the selected concentration range,"[1]; human, 24 h",13.2
same,In vitro assays (genotoxicity),[3],+
COc1cccc2c1C(=O)c1c(O)c3c(c(O)c1C2=O)C[C@@](O)(C(=O)CO)C[C@@H]3O[C@H]1C[C@H](N)[C@@H](O)[C@H](C)O1 [Epirubicin hydrochloride],maximum γ-H2AX value within the selected concentration range,"[1]; human, 24 h",18
same,γ-H2AX MEC/MS (minimum effective concentration),"[1]; human, 24 h",0.01 µM
same,In vitro assays (genotoxicity),[3],+
Sc1ncnc2nc[nH]c12 [6-mercaptopurine],maximum γ-H2AX value within the selected concentration range,"[1]; human, 24 h",5.82
same,In vitro assays (genotoxicity),[3],+
O=NN(CCCl)C(=O)NCCCl [Carmustine],γ-H2AX MEC/MS (minimum effective concentration),"[1]; HepG2 cells, 24 h exposure",↑(0.01) µM
same,γ-H2AX MEC/MS (minimum effective concentration),"[1]; HepG2 cells, 24 h exposure, listed as carmustine",0.01 µM
same,k (speed of γ-H2AX descending),[2],0.169
same,t50 (time required for γ-H2AX to drop to half of the maximum value),[2],2.298 h
COc1cccc2c1C(=O)c1c(O)c3c(c(O)c1C2=O)C[C@@](O)(C(=O)CO)C[C@@H]3O[C@H]1C[C@H](N)[C@H](O[C@@H]2CCCCO2)[C@H](C)O1 [Pirarubicin],maximum γ-H2AX value within the selected concentration range,"[1]; HepG2 cells, 24 h",22
same,γ-H2AX MEC/MS (minimum effective concentration),"[1]; HepG2 cells, 24 h exposure",↑(0.01) µM
same,γ-H2AX MEC/MS (minimum effective concentration),"[1]; HepG2 cells, 24 h exposure, listed as pirarubicin",0.01 µM
same,In vitro assays (genotoxicity),[3],+
CC/C(=C(\c1ccccc1)c1ccc(OCCN(C)C)cc1)c1ccccc1 [Tamoxifen],maximum γ-H2AX value within the selected concentration range,"[1]; human, 24 h",3.1
same,In vitro assays (genotoxicity),[3],−
CCC1(c2ccc(N)cc2)CCC(=O)NC1=O (stereo not drawn) [Aminoglutethimide],maximum γ-H2AX value within the selected concentration range,"[1]; human, 24 h",2.9
same,In vitro assays (genotoxicity),[3],−

# From publication PMC11219945, “Assessing genotoxic effects of chemotherapy agents by a robust in vitro assay based on mass spectrometric quantification of γ-H2AX in HepG2 cells” (Frontiers in Pharmacology, 2024)
